The numbers were not newly measured in patent US5138036A, “Isolation and structural elucidation of the cytostatic cyclodepsipeptide dolastatin 14” (Arizona Board of Regents acting on behalf of Arizona State …, priority 1989, dated 1992), which cites them from elsewhere.

Data set [1] relates to P388 lymphocytic leukemia (PS system). The settings on record: 1-4 μg/kg.
Data set [2] has as its system B16 melanoma. The following applies: 1.44-11.1 μg/kg.
For data set [3], the system named is human melanoma xenograph. The following applies: 3.25-26 μg/kg.

Take `CC[C@H](C)[C@@H]([C@@H](CC(=O)N1CCC[C@H]1[C@H](OC)[C@@H](C)C(=O)N[C@@H](Cc1ccccc1)c1nccs1)OC)N(C)C(=O)[C@@H](NC(=O)[C@H](C(C)C)N(C)C)C(C)C` [dolastatin 10]: the life extension is reported as 69-102% in data set [1] and 42-138% in data set [2]. In addition, the curative response in data set [3] was 17-67%.
